Data reported in ChEMBL document CHEMBL1770096, “Structure-activity relationships of trans-substituted-propenoic acid derivatives on the nicotinic acid receptor HCA2 (GPR109A)” (Bioorg Med Chem Lett, 2011).

Target: Hydroxycarboxylic acid receptor 2 (Homo sapiens) (UniProt Q8TDS4)
Test: Displacement of [3H]nicotinic acid from human GPR109a receptor expressed in human HEK293T cells at 10 uM by liquid scintillation counting
Type: cell-based
Conditions: HEK-293T

Sequence of Hydroxycarboxylic acid receptor 2 (Homo sapiens) (Q8TDS4 whole entry): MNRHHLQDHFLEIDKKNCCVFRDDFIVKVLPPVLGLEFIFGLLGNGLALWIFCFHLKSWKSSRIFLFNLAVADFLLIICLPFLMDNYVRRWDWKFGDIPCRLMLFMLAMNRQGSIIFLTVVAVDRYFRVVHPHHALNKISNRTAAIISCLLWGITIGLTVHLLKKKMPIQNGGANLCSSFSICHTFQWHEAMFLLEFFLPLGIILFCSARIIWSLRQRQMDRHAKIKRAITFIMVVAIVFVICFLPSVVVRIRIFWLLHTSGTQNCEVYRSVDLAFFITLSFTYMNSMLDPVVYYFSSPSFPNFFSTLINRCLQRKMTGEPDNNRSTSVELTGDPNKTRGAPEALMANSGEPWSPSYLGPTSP

Activity [%]	Structure (SMILES)
10	O=C(O)/C=C/C(=O)O
0	COc1cc(/C=C/C(=O)O)ccc1O
